Target: EZH1 (Homo sapiens, UniProt Q92800)
Experiment: histone methyltransferase selectivity assay
Type: biochemical

EZH1, sequence (Q92800 whole entry): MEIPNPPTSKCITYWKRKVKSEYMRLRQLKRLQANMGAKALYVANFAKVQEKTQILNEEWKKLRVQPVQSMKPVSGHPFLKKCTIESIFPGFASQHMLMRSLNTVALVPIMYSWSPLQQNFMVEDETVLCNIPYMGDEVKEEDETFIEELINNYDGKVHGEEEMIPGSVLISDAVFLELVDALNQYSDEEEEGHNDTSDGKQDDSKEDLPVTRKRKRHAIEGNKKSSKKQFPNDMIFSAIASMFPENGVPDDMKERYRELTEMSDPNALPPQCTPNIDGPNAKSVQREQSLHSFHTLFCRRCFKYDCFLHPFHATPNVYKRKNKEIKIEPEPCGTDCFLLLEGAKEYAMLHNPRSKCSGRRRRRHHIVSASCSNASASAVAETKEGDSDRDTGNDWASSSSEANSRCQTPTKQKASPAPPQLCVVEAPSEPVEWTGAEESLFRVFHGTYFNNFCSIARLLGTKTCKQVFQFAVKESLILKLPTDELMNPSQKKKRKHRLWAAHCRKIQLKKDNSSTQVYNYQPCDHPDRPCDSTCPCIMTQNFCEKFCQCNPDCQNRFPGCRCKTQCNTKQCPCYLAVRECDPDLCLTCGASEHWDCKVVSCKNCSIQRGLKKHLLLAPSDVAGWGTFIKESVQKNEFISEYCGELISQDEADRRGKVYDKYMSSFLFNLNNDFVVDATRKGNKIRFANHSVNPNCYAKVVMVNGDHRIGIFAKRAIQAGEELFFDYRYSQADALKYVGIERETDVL
EZH1, sequence (O75530 2-441 partner): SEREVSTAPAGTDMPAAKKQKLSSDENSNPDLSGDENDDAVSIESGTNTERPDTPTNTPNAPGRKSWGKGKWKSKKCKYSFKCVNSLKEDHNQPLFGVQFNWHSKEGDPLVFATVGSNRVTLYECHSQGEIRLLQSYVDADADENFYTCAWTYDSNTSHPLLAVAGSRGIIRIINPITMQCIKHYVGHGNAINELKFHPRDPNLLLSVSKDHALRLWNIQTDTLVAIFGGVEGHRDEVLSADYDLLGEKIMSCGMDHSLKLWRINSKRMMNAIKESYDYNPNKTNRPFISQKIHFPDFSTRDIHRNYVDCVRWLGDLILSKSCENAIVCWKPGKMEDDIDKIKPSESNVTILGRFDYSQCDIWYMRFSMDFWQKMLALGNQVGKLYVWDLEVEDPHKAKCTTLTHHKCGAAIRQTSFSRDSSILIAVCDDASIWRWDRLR
EZH1, sequence (Q15022 whole entry partner): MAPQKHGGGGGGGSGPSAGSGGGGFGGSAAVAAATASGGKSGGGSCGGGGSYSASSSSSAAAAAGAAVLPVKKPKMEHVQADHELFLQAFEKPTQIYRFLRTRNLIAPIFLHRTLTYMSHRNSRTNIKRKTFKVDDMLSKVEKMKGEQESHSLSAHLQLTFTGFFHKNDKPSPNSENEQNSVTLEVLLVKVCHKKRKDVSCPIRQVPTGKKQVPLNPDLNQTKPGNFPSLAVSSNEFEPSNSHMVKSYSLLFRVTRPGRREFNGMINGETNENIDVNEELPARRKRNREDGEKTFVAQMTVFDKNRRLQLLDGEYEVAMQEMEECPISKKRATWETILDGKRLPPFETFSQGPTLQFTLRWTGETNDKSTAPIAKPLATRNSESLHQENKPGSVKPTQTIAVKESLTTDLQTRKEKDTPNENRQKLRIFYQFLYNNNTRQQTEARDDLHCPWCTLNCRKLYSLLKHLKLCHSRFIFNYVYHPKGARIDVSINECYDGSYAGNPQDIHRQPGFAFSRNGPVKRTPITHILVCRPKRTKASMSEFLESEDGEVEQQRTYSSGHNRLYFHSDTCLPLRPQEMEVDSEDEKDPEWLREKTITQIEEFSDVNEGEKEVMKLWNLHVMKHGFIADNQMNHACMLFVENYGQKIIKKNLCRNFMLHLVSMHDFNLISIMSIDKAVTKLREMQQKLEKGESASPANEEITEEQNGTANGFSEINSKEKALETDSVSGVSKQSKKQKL

Ki: 636 nM
Compound: Cc1cc(C)c(CNC(=O)c2cc(-c3ccc(N4CCN(C)CC4)nc3)cc3c2c(C)cn3C(C)C)c(=O)[nH]1 [GSK503]
